Experimental data from patent US20070292403A1, “Methods of treating a neurological disorder with creatine monohydrate” (priority 2006, published 2007).
Like-named read-outs stand apart in the source and are kept apart here.

Columns and labels:
cortical thinning in HD = experiment: Example 3: morphometric neuroimaging, rate of cortical thinning; type: in vivo, human; conditions: high dose creatine
Experimental: High dose creatine slows cortical thinning. Morphometric neuroimaging was performed in all subjects. Longitudinal data from up to three years prior to initiating creatine was available on 6 or the 10 subjects. The rate of thinning of cortical regions in HD was modeled based on the longitudinal data and a change in rate was determined for each region of the group while on creatine. […] Creatine reduced the rate of thinning in almost every region, and the rate of change was statistically significant for several regions and amounted to about a 30% slowing. There was no effect on the rate of caudate volume loss (p=0.67), rate of putamen volume loss, or on total brain volume. The lack of an effect on striatal volumes likely reflects the fact that in these individuals, caudate and putamen volumes were already reduced by more than half and the lack of change in whole brain by the fact that small proportion of the brain is represented by the detected change.

patients with ALS = experiment: Example 4: combined survival analysis of two placebo-controlled trials in amyotrophic lateral sclerosis; type: in vivo, human; conditions: 5 gm per day
Experimental: The two trials analyzed included a total of 211 patients, 103 creatine-treated and 108 placebo-treated subjects.
For this analysis, a measure of treatment effect in an estimated pooled hazard ratio was calculated. This measure gives the risk of death for treated subjects divided by the risk of death for controls. Survival analysis by treatment was also performed for each trial separately. A Cox model was used to assess the hazard ratios and survival by treatment in the pooled data, controlling for trial effect and baseline variables. Baseline characteristics of the study populations were also compared. Continuous variables were compared by treatment and trial, using the analysis of variance by putting both treatment and trial as the […] variables. A Cochran-Mantel-Haenszel test statistic was used to compare discrete variables by treatment and trial, controlling for trial and treatment effects, respectively.

[1] = system: symptomatic subjects with Huntington's disease; experiment: Example 3: open-label dose escalation (10-40 grams per day), tolerability, safety and UHDRS; type: in vivo, human
Experimental: (§1) A two-phase open-label study was conducted to better determine an optimal dose of creatine symptomatic subjects with Huntington's disease. A dose-escalation study (10-40 grams per day) was conducted to determine the maximally tolerated dose (MTD) followed by a de-escalation phase to assess whether brain and serum levels of creatine might be maximal at doses lower than the MTD. Ten subjects were enrolled and followed prospectively for two weeks at each done level increasing in 5-gram increments during dose escalation that lasted 13 weeks. Assessments at each visit included UHDRS, EKG, vital signs, clinical safety and research labs. MRI spectroscopy was conducted prior to baseline at peak done (40 grams) and one month after de-escalation to either 30 or 15 grams daily. To determine an optimal dose, pharmacokinetic as well as clinical data were considered. Once the maximal dose was reached, subjects were assigned one of two lower doses previously taking (15 grams a day (n=5) or 30 grams a day (n=5)). Serum creatine was assessed at baseline, at the end of each 2-week dose escalation step and at the end of the de-escalation phase to assess the correspondence between serum and brain levels of creatine at steady state.

[2] = system: symptomatic subjects with Huntington's disease; type: in vivo, human
Experimental: as §1
Subjects at the end of this study were given the option to continue a long-term study to evaluate the long-term safety and tolerability of high dosage of creatine. Subjects have been followed for nine months on creatine. […] Adverse events have been infrequent and mild to moderate in grade and 30 grams daily creatine has been well-tolerated for 9 months. Laboratory abnormalities have been mild. […] Thus long term administration of 30 grams daily of creatine appears to be safe and well-tolerated.

[3] = design: species or system human; conditions: in vivo
Experimental: as §1

[4] = system: subjects with early Parkinson's disease (PD); experiment: Example 2: safety and tolerability in the early Parkinson's disease trial; type: in vivo, human; conditions: human, in vivo
Experimental: Study Design and Randomization. This example was a single arm futility study designed to assess creatine and minocycline. A placebo arm for calibration was included in the example. Eligible subjects were randomly assigned in a 1:1:1 fashion to receive 1) 10 g/day of creatine monohydrate and placebo minocycline, 2) placebo creatine monohydrate and 200 mg/day of minocycline, or 3) placebo creatine monohydrate and placebo minocycline. The primary futility analysis was at 12 months of follow-up, but each subject was followed for 18 months for additional safety information. Subjects and investigators were kept blinded to treatment group.
Dosages. Creatine was administered as 5 g sachets mixed with 8 ounces of liquid taken twice a day and minocycline was administered as 100 mg capsules taken twice a day. Both were taken with meals.
Outcome measures. The primary, prespecified outcome measure was the change in the total Unified PD Rating Scale (UPDRS) score from baseline to either the time at which there was sufficient disability to warrant symptomatic therapy for PD or 12 months, whichever came first. Disability was assessed by the sight investigator, based on impairment in ambulation, activities in daily living, and occupational status. The mean change in total UPDRS for each treatment group was compared to a prespecified futility threshold of a 30% reduction in the historically derived change in the total UPDRS, which was based on a placebo arm of a previous clinical trial. Tolerability was defined as the proportion of subjects taking study drug for the full 12 months. All […] adverse events (SAEs) were reviewed by the study medical monitor and an independent medical monitor. Both the site investigator and medical monitors assessed the potential relationship between SAEs and study drug.
Study Procedures. At the screening visit, the purpose and potential risks were explained to potential subjects and each subject gave written consent. […] Blood was obtained for serum chemistry and complete blood count. Participants were reevaluated at 1, 3, 6, 9, and 12 months (±6 days) after the baseline visit using the battery of clinical scales and blood was drawn again at 6 and 12 months.

[5] = De-escalation Baseline, 15 g/day, N 5
[6] = De-escalation Baseline, 30 g/day, N 5
[7] = Week 24 (Visit 4), 30 g/day, N 10

In the case of CN(CC(=O)O)C(=N)N [Creatine, creatine monohydrate], the “Effect on rate of caudate volume loss, rate of putamen volume loss, total brain volume” value (cortical thinning in HD; caudate p=0.67) is reported as “no effect”, the “Slowing of the rate of cortical thinning” value (cortical thinning in HD; several cortical regions statistically significant, longitudinal data on 6 of 10 subjects) is reported as about 30% and the “Improvement of median survival over placebo” value (patients with ALS; pooled data) is reported as “two-to-three”. For the same compound, the “Adjusted hazard ratio, creatine group relative to placebo group” value (patients with ALS; pooled data of two trials, Cox model, 95% confidence interval 0.11 to 1.04, p=0.059) was 0.34, the Median survival (patients with ALS; pooled data, placebo 27 months) was 87 months and the “Hazard ratio, homogeneity of effect between trials” value (patients with ALS; p=0.062, 95% confidence interval 0.11 to 1.06) was 0.34. The “Dose tolerated by all subjects during dose escalation” value ([1]; 10 subjects, 5-gram increments, two weeks per dose level, no withdrawals) was “up to 40 grams/day”, the “Changes in UHDRS subscores” value ([1]; dose escalation 10-40 grams per day) was “not significant” and the “Adverse events at high doses” value ([1]; in vivo) was “increased numbers of adverse events”. The Average creatinine level ([1]; in vivo) was 1.28 ± 0.16 mg/dL, the BUN levels ([1]; in vivo) was “did not increase” and the “Serious adverse events, laboratory abnormalities, EKG” value ([1]; in vivo) was “no serious adverse events, no significant laboratory abnormalities and no EKG alterations”. The “Tolerability at selected dose” value ([1]; in vivo) was “excellent tolerability”, the “Independence Score” value [2, 5] was 75.0 (8.7) and the “Stroop Color Naming” value [2, 5] was 52.8 (22.9). For the same compound, the “Stroop Interference” value [2, 5] was 23.8 (13.1), the “Stroop Word Reading” value [2, 5] was 56.0 (24.3) and the “Symbol Digit Modalities Test” value [2, 5] was 29.0 (10.6). The “Total Chorea Score” value [2, 5] was 5.5 (1.7), the “Total Functional Assessment” value [2, 5] was 10.6 (9.8) and the “Total Functional Capacity” value [2, 5] was 8.8 (1.8). The “Verbal Fluency Test” value [2, 5] was 15.8 (16.0), the “Independence Score” value [2, 6] was 82.5 (14.4) and the “Stroop Color Naming” value [2, 6] was 57.8 (24.2). For the same compound, the “Stroop Interference” value [2, 6] was 40.0 (19.6), the “Stroop Word Reading” value [2, 6] was 90.0 (24.2) and the “Symbol Digit Modalities Test” value [2, 6] was 34.0 (20.5). For the same compound, the “Total Chorea Score” value [2, 6] was 7.8 (4.3), the “Total Functional Assessment” value [2, 6] was 15.8 (10.2) and the “Total Functional Capacity” value [2, 6] was 9.8 (3.4). The “Verbal Fluency Test” value [2, 6] was 28.3 (15.8), the “Independence Score” value [2, 7] was 82.5 (8.9) and the “Stroop Color Naming” value [2, 7] was 51.7 (21.37). For the same compound, the “Stroop Interference” value [2, 7] was 31.3 (15.23), the “Stroop Word Reading” value [2, 7] was 62.7 (24.11) and the “Symbol Digit Modalities Test” value [2, 7] was 30.56 (12.63). For the same compound, the “Total Chorea Score” value [2, 7] was 7.0 (4.1), the “Total Functional Assessment” value [2, 7] was 19.6 (4.1) and the “Total Functional Capacity” value [2, 7] was 8.7 (2.2). For the same compound, the “Verbal Fluency Test” value [2, 7] was 26.6 (17.67), the Serious adverse effects ([2]; human, in vivo) was “no serious adverse effects” and the Tolerability ([2]; human, in vivo) was “well-tolerated”. For the same compound, the “Clinical changes (UHDRS subscores)” value ([2]; long-term follow-up, up to 9 months) was “no significant clinical changes”, the “Dose at which serum creatine levels reached a plateau” value ([3]; human) was 30-35 grams/day and the “Brain levels of creatine in the frontal cortex by MRI spectroscopy” value [3] was “continued increases”. The “Patients with dose reductions” value [4] was 8.
